Data taken from US10030047B2 (Hoffmann-La Roche Inc., priority 2015, dated 2018).

System: A. baumannii strain ATCC17978
Assay: 50% growth inhibitory concentration (IC50) determination, Iso-Sensitest broth
Type: cell-based
Settings: Acinetobacter baumannii; A. baumannii ATCC17978; Iso-Sensitest medium; OD 600 nm over 16 h; read-out: IC50 ATCC17978
Outline: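 Twofold dilution series (e.g. 50 to 0.097 μM final) in Iso-Sensitest broth, inoculum ~5×10^(5) CFU/ml, incubated at 35±2° C. OD600 read every 20 min over 16 h; IC50 and IC90 calculated during logarithmic growth.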

Compound | IC50 [nM]
CN1C(=O)[C@H](CCCCN)NC(=O)[C@H](CCCN)NCc2cccnc2Sc2c(Cl)ccc(-c3ccc(OCC(O)CO)cc3)c2CNC(=O)[C@@H]1Cc1c[nH]c2ccccc12 (stereo partly drawn) [Example 240, (11S,14S,17S)-14-(4-Amino-butyl)-11-(3-amino-propyl)-25-chloro-22-[4-(2,3-dihydroxy-propoxy)-phenyl]-17-(1H-indol-3-ylmethyl)-16-methyl-2-thia-4,10,13,16,19-pentaaza-tricyclo[19.4.0.0*3,8*]pentacosa-1(25),3(8),4,6,21,23-hexaene-12,15,18-trione] | < 100
CN1C(=O)[C@H](CCCCN)NC(=O)[C@H](CCCN)NCc2cccnc2Sc2c(Cl)ccc(-c3ccc(OCC(=O)O)cc3)c2CNC(=O)[C@@H]1Cc1c[nH]c2ccccc12 [Example 241, {4-[(11S,14S,17S)-14-(4-Amino-butyl)-11-(3-amino-propyl)-25-chloro-17-(1H-indol-3-ylmethyl)-16-methyl-12,15,18-trioxo-2-thia-4,10,13,16,19-pentaaza-tricyclo[19.4.0.0*3,8*]pentacosa-1(25),3(8),4,6,21,23-hexaen-22-yl]-phenoxy}-acetic acid] | < 200
CN1C(=O)[C@H](CCCCN)NC(=O)[C@H](CCCN)NCc2cccnc2Sc2c(Cl)ccc(-c3ccc(OC4CCNCC4)cc3)c2CNC(=O)[C@@H]1Cc1c[nH]c2ccccc12 [Example 242, (11S,14S,17S)-14-(4-Amino-butyl)-11-(3-amino-propyl)-25-chloro-17-(1H-indol-3-ylmethyl)-16-methyl-22-[4-(piperidin-4-yloxy)-phenyl]-2-thia-4,10,13,16,19-pentaaza-tricyclo[19.4.0.0*3,8*]pentacosa-1(25),3(8),4,6,21,23-hexaene-12,15,18-trione] | < 200
CN1C(=O)[C@H](CCCCN)NC(=O)[C@H](CCCN)NCc2cccnc2Sc2c(Cl)ccc(-c3ccc(CN)cc3)c2CNC(=O)[C@@H]1Cc1c[nH]c2ccccc12 [Example 243, (11S,14S,17S)-14-(4-Amino-butyl)-22-(4-aminomethyl-phenyl)-11-(3-amino-propyl)-25-chloro-17-(1H-indol-3-ylmethyl)-16-methyl-2-thia-4,10,13,16,19-pentaaza-tricyclo[19.4.0.0*3,8*]pentacosa-1(25),3(8),4,6,21,23-hexaene-12,15,18-trione] | < 100
CN1C(=O)[C@H](CCCCN)NC(=O)[C@H](CCCN)NCc2cccnc2Sc2c(Cl)ccc(-c3cccc(CCN)c3)c2CNC(=O)[C@@H]1Cc1c[nH]c2ccccc12 [Example 244, (11S,14S,17S)-14-(4-Amino-butyl)-22-[3-(2-amino-ethyl)-phenyl]-11-(3-amino-propyl)-25-chloro-17-(1H-indol-3-ylmethyl)-16-methyl-2-thia-4,10,13,16,19-pentaaza-tricyclo[19.4.0.0*3,8*]pentacosa-1(25),3(8),4,6,21,23-hexaene-12,15,18-trione] | < 400
CN1C(=O)[C@H](CCCCN)NC(=O)[C@H](CCCN)NCc2cccnc2Sc2c(Cl)ccc(-c3ccc(N4CCNCC4)cc3)c2CNC(=O)[C@@H]1Cc1c[nH]c2ccccc12 [Example 245, (11S,14S,17S)-14-(4-Amino-butyl)-11-(3-amino-propyl)-25-chloro-17-(1H-indol-3-ylmethyl)-16-methyl-22-(4-piperazin-1-yl-phenyl)-2-thia-4,10,13,16,19-pentaaza-tricyclo[19.4.0.0*3,8*]pentacosa-1(25),3(8),4,6,21,2-hexaene-12,15,18-trione] | < 100
CN1C(=O)[C@H](CCCCN)NC(=O)[C@H](CCCN)NCc2cccnc2Sc2c(Cl)ccc(-c3ccc(S(=O)(=O)NCCO)cc3)c2CNC(=O)[C@@H]1Cc1c[nH]c2ccccc12 [Example 246, 4-[(11S,14S,17S)-14-(4-Amino-butyl)-11-(3-amino-propyl)-25-chloro-17-(1H-indol-3-ylmethyl)-16-methyl-12,15,18-trioxo-2-thia-4,10,13,16,19-pentaaza-tricyclo[19.4.0.0*3,8*]pentacosa-1(25),3(8),4,6,21,23-hexaen-22-yl]-N-(2-hydroxy-ethyl)-benzenesulfonamide] | < 100
CN1C(=O)[C@H](CCCCN)NC(=O)[C@H](CCCN)NCc2cccnc2Sc2c(Cl)ccc(-c3ccc(C(=O)NCCO)cc3)c2CNC(=O)[C@@H]1Cc1c[nH]c2ccccc12 [Example 247, 4-[(11S,14S,17S)-14-(4-Amino-butyl)-11-(3-amino-propyl)-25-chloro-17-(1H-indol-3-ylmethyl)-16-methyl-12,15,18-trioxo-2-thia-4,10,13,16,19-pentaaza-tricyclo[19.4.0.0*3,8*]pentacosa-1(25),3(8),4,6,21,23-hexaen-22-yl]-N-(2-hydroxy-ethyl)-benzamide] | < 100
CN(C)CCNC(=O)c1ccc(-c2ccc(Cl)c3c2CNC(=O)[C@H](Cc2c[nH]c4ccccc24)N(C)C(=O)[C@H](CCCCN)NC(=O)[C@H](CCCN)NCc2cccnc2S3)cc1 [Example 248, 4-[(11S,14S,17S)-14-(4-Amino-butyl)-11-(3-amino-propyl)-25-chloro-17-(1H-indol-3-ylmethyl)-16-methyl-12,15,18-trioxo-2-thia-4,10,13,16,19-pentaaza-tricyclo[19.4.0.0*3,8*]pentacosa-1(25),3(8),4,6,21,23-hexaen-22-yl]-N-(2-dimethylamino-ethyl)-benzamide] | < 100
CN1C(=O)[C@H](CCCCN)NC(=O)[C@H](CCCN)NCc2cccnc2Sc2c(Cl)ccc(-c3ccc(C(=O)NCCN4CCOCC4)cc3)c2CNC(=O)[C@@H]1Cc1c[nH]c2ccccc12 [Example 249, 4-[(11S,14S,17S)-14-(4-Amino-butyl)-11-(3-amino-propyl)-25-chloro-17-(1H-indol-3-ylmethyl)-16-methyl-12,15,18-trioxo-2-thia-4,10,13,16,19-pentaaza-tricyclo[19.4.0.0*3,8*]pentacosa-1(25),3(8),4,6,21,23-hexaen-22-yl]-N-(2-morpholin-4-yl-ethyl)-benzamide] | < 100
CN1C(=O)[C@H](CCCCN)NC(=O)[C@H](CCCN)NCc2cccnc2Sc2c(Cl)ccc(-c3ccc(C4CCNCC4)cc3)c2CNC(=O)[C@@H]1Cc1c[nH]c2ccccc12 [Example 250, (11S,14S,17S)-14-(4-Amino-butyl)-1-(3-amino-propyl)-25-chloro-17-(1H-indol-3-ylmethyl)-16-methyl-22-(4-piperidin-4-yl-phenyl)-2-thia-4,10,13,16,19-pentaaza-tricyclo[19.4.0.0*3,8*]pentacosa-1(25),3(8),4,6,21,23-hexaene-12,15,18-trione] | < 100
CNCCCC[C@@H]1NC(=O)[C@H](CCCN)NCc2cccnc2Sc2c(Cl)cc(Cl)cc2CNC(=O)[C@H](Cc2c[nH]c3ccccc23)N(C)C1=O [Example 251, (11S,14S,17S)-11-(3-Amino-propyl)-23,25-dichloro-17-(1H-indol-3-ylmethyl)-16-methyl-14-(4-methylamino-butyl)-2-thia-4,10,13,16,19-pentaaza-tricyclo[19.4.0.0*3,8*]pentacosa-1(25),3(8),4,6,21,23-hexaene-12,15,18-trione] | < 100
CN1C(=O)[C@H](CCCCN)NC(=O)[C@H](CCCO)NCc2cccnc2Sc2c(Cl)cc(Cl)cc2CNC(=O)[C@@H]1Cc1c[nH]c2ccccc12 [Example 252, (11S,14S,17S)-14-(4-Amino-butyl)-23,25-dichloro-11-(3-hydroxy-propyl)-17-(1H-indol-3-ylmethyl)-16-methyl-2-thia-4,10,13,16,19-pentaaza-tricyclo[19.4.0.0*3,8*]pentacosa-1(25),3(8),4,6,21,23-hexaene-12,15,18-trione] | 500
CCCC[C@@H]1NC(=O)[C@H](CCCN)NCc2cccnc2Sc2c(Cl)cc(Cl)cc2CNC(=O)[C@H](Cc2c[nH]c3ccccc23)N(C)C1=O [Example 253, (11S,14S,17S)-11-(3-Amino-propyl)-14-butyl-23,25-dichloro-17-(1H-indol-3-ylmethyl)-16-methyl-2-thia-4,10,13,16,19-pentaaza-tricyclo[19.4.0.0*3,8*]pentacosa-1(25),3(8),4,6,21,23-hexaene-12,15,18-trione] | 4200
